This is an account of results in US11292801B2, “Calpain modulators and therapeutic uses thereof” (Blade Therapeutics, Inc., priority 2016, dated 2022).

For one test, the target named is T1, Human Calpain 2/NS1 (Homo sapiens, UniProt P17655).
T1 sequence (P17655 1-700): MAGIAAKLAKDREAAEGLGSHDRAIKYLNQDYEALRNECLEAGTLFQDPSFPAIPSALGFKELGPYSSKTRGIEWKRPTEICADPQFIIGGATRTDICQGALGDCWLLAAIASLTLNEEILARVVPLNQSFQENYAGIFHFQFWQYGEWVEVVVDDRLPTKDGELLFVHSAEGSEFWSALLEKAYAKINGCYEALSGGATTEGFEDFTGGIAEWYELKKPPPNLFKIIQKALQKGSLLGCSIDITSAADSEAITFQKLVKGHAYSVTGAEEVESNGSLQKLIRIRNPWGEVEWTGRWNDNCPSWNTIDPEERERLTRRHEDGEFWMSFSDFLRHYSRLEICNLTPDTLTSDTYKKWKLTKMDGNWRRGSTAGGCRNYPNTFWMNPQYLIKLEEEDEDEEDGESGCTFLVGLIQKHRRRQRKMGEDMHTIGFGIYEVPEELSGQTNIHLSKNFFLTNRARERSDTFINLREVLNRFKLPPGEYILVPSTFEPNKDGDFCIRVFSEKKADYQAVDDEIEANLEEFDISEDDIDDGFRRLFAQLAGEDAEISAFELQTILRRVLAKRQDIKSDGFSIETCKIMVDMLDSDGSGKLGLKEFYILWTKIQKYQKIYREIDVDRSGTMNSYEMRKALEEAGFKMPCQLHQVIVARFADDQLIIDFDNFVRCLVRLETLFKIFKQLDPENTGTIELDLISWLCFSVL
T1 sequence (P04632 1-268 partner): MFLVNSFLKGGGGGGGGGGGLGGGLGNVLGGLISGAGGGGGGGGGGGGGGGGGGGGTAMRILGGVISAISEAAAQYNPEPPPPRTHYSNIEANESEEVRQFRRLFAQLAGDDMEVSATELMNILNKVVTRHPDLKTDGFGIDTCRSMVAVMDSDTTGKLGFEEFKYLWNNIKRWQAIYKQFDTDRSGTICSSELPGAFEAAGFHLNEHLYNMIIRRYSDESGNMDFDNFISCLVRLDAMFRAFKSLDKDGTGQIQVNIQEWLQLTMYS
In words: Biochemical inhibition of calpain 2, continuous fluorescence (FRET substrate) assay. As to conditions: mean, read-out: Human Calpain 2/NS1 IC50 (nM)_MEAN. Put shortly: (§1)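 IC50 values come from 4-parameter fits of progress-curve rates (1-5 min slopes) against log inhibitor concentration. Calpain and inhibitor premixed at ambient 25C in Tris pH ~7.5/NaCl/DTT buffer, then CaCl2 and FRET substrate added to activate; 5-FAM fluorescence (ex 490/em 520) followed 10 min.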

In a further test the target is T2, Human Calpain 1/NS1 (Homo sapiens, UniProt P07384).
T2 sequence (P07384 1-714): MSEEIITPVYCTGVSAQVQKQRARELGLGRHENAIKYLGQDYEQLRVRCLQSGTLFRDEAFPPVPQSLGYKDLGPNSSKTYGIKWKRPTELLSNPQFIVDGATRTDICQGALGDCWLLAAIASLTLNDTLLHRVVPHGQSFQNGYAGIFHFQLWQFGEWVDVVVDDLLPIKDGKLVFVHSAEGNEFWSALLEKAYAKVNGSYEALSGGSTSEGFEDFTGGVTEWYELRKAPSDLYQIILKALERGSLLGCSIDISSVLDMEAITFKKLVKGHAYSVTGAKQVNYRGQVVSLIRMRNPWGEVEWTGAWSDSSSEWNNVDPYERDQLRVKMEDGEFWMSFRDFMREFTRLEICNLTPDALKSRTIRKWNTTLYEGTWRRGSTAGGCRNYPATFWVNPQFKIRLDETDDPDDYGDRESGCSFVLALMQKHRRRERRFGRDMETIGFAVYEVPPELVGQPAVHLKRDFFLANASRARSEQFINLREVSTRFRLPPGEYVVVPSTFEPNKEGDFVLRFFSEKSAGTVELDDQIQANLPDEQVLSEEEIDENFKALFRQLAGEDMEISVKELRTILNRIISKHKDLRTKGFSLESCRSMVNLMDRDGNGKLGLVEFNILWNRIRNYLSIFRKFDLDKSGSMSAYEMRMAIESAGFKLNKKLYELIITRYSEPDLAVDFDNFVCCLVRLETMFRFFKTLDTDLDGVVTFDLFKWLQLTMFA
T2 sequence (P04632 1-268 partner): T1 sequence (P04632 1-268 partner)
In words: Biochemical inhibition of calpain 1, continuous fluorescence (FRET substrate) assay. As to conditions: mean, read-out: Human Calpain 1/NS1 IC50 (nM)_MEAN. Put shortly:
as §1

A further test has as its target T3, Human Calpain 9/NS1 (Homo sapiens, UniProt O14815).
T3 sequence (O14815 1-690): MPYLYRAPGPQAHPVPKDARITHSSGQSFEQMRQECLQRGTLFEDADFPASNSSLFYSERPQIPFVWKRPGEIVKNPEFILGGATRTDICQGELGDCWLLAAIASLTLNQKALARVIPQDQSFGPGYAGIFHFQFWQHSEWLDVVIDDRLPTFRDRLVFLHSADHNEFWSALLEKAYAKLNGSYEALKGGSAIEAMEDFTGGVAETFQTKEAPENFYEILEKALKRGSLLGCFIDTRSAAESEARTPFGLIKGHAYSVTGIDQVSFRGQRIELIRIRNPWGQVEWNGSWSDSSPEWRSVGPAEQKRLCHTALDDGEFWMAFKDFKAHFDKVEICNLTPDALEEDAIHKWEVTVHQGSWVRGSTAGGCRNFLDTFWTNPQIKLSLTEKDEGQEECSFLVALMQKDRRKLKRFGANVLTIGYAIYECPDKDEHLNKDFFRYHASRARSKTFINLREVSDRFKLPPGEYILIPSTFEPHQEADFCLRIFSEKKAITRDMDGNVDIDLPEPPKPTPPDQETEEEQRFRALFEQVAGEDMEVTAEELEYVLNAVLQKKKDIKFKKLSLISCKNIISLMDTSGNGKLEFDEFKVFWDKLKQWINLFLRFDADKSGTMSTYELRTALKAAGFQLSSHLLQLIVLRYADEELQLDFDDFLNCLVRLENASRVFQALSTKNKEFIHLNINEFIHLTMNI
T3 sequence (P04632 1-268 partner): T1 sequence (P04632 1-268 partner)
The experiment in a line: Biochemical inhibition of calpain 9, continuous fluorescence (FRET substrate) assay. As to conditions: mean, read-out: Human Calpain 9/NS1 IC50 (nM)_MEAN. In short, it runs like this:
as §1

In the case of `O=C[C@@H]1CCCCCCCCCCc2ccccc2C(=O)N1` [Compound 28, (S)-1-Oxo-2,3,4,5,6,7,8,9,10,11,12,13-dodecahydro-1h-benzo[c][1]aza-cyclopentadecine-3-carbaldehyde], the IC50 at Human Calpain 2/NS1, at Human Calpain 1/NS1 and on Human Calpain 9/NS1 was < 3000 nM throughout.

For the molecule `O=C[C@@H]1Cc2ccc(cc2)CCCCc2cccc(c2)-c2ccn(n2)-c2ncccc2C(=O)N1` [Compound 73, (10S,E)-12-oxo-2^1H-11-aza-1(2,3)-pyridina-2(1,3)-pyrazola-3(1,3),8(1,4)-dibenzenacyclododecaphane-10-carbaldehyde], the IC50 on Human Calpain 2/NS1, on Human Calpain 1/NS1 and on Human Calpain 9/NS1 was < 3000 nM each time.

Take `O=C[C@@H]1CC=CCCOc2cccc(c2)-c2ncccc2C(=O)N1` [Compound 37, (S)-11-Oxo-3-oxa-10-aza-1(2,3)-pyridina-2(1,3)-benzenacycloundecaphan-6-ene-9-carbaldehyde]: the IC50 on Human Calpain 2/NS1, on Human Calpain 1/NS1 and at Human Calpain 9/NS1 was < 3000 nM each time.

With `O=C1NC(C(=O)C(=O)N2CCOCC2)CCCCOCCOCc2ccccc21` (stereo not drawn) [Compound 115, 1-Morpholino-2-(12-oxo-1,3,4,6,7,8,9,10,11,12-decahydrobenzo[f][1,4]dioxa[9]azacyclotetradecin-10-yl)ethane-1,2-dione], the IC50 at Human Calpain 2/NS1, at Human Calpain 1/NS1 and at Human Calpain 9/NS1 was > 10000 nM throughout.

Consider `CN(C)c1ccc(CNC(=O)C(=O)C2CCCCOCCOCc3ccccc3C(=O)N2)cc1` (stereo not drawn) [Compound 113, N-(4-(dimethylamino)benzyl)-2-oxo-2-(12-oxo-1,3,4,6,7,8,9,10,11,12-decahydrobenzo[f][1,4]dioxa[9]azacyclotetradecin-10-yl)acetamide], for which the results for the IC50 on Human Calpain 2/NS1, at Human Calpain 1/NS1 and on Human Calpain 9/NS1 were > 10000 nM, > 10000 nM and < 3000 nM, respectively.

For the molecule `O=C[C@@H]1CCCCCOc2ccnc(c2)-c2ccccc2C(=O)N1` [Compound 149, (S)-3-oxo-11-oxa-4-aza-1(2,4)-pyridina-2(1,2)-benzenacycloundecaphane-5-carbaldehyde], the IC50 on Human Calpain 2/NS1, on Human Calpain 1/NS1 and on Human Calpain 9/NS1 was < 3000 nM throughout.

On to `O=C(NCc1c(F)cccc1Cl)C(=O)C1CCCCOCCOCc2ccccc2C(=O)N1` (stereo not drawn) [Compound 107], for which the IC50 is > 10000 nM at Human Calpain 2/NS1, > 10000 nM at Human Calpain 1/NS1 and 3000 to 10000 nM at Human Calpain 9/NS1.

As for `NC(=O)C(O)[C@@H]1CCCCCOc2ccnc(n2)-c2ccccc2C(=O)N1` (stereo partly drawn) [Compound 147], the IC50 on Human Calpain 2/NS1, on Human Calpain 1/NS1 and on Human Calpain 9/NS1 was > 10000 nM throughout.

On to `O=C(NCCN1CCOCC1)C(=O)C1CCCCOCCOCc2ccccc2C(=O)N1` (stereo not drawn) [Compound 80, N-(2-morpholinoethyl)-2-oxo-2-(12-oxo-1,3,4,6,7,8,9,10,11,12-decahydrobenzo[f][1,4]dioxa[9]azacyclotetradecin-10-yl)acetamide], for which the IC50 on Human Calpain 2/NS1, on Human Calpain 1/NS1 and on Human Calpain 9/NS1 was > 10000 nM in each case.

For `O=C(NC1CC1)C(=O)[C@@H]1Cc2ccc(cc2)OC/C=C/COc2ccc3c(cnn3-c3ncccc3C(=O)N1)c2` [Compound 69, N-cyclopropyl-2-oxo-2-((5S,E)-3-oxo-1^1H-8,13-dioxa-4-aza-1(1,5)-indazola-2(2,3)-pyridina-7(1,4)-benzenacyclotridecaphan-10-en-5-yl)acetamide], the figures for the IC50 at Human Calpain 2/NS1, at Human Calpain 1/NS1 and on Human Calpain 9/NS1 were < 3000 nM, 3000 to 10000 nM and < 3000 nM, respectively.

As for `O=C[C@@H]1Cc2ccccc2C=CCCCCOc2ccccc2C(=O)N1` [Compound 13, (S)-19-Oxo-6,7,8,9,16,17,18,19-octahydrodibenzo[b,h][1]oxa[5]aza-cyclopentadecine-17-carbaldehyde], the IC50 at Human Calpain 2/NS1 is < 3000 nM; on Human Calpain 1/NS1, 3000 to 10000 nM; at Human Calpain 9/NS1 it was 3000 to 10000 nM.

Consider `O=C[C@@H]1CCCCCCCCc2ccccc2C(=O)N1` [Compound 15, (S)-1-Oxo-2,3,4,5,6,7,8,9,10,11-decahydro-1h-benzo[c][1]aza-cyclotridecine-3-carbaldehyde], for which the IC50 on Human Calpain 2/NS1 was < 3000 nM; at Human Calpain 1/NS1 it was 3000 to 10000 nM; on Human Calpain 9/NS1, < 3000 nM.

In the case of `CCCCc1ccc(CNC(=O)C(=O)C2CCCCOCCOCc3ccccc3C(=O)N2)cc1` (stereo not drawn) [Compound 112, N-(4-butylbenzyl)-2-oxo-2-(12-oxo-1,3,4,6,7,8,9,10,11,12-decahydrobenzo[f][1,4]dioxa[9]azacyclotetradecin-10-yl)acetamide], the figures for the IC50 at Human Calpain 2/NS1, at Human Calpain 1/NS1 and at Human Calpain 9/NS1 were > 10000 nM, > 10000 nM and < 3000 nM, respectively.

`O=C(NCc1ccccn1)C(=O)C1CCCCOCCOCc2ccccc2C(=O)N1` (stereo not drawn) [Compound 94, 2-Oxo-2-(12-oxo-1,3,4,6,7,8,9,10,11,12-decahydrobenzo[f][1,4]dioxa[9]aza-cyclotetradecin-10-yl)-N-(pyridin-2-ylmethyl)acetamide]: the figures for the IC50 at Human Calpain 2/NS1, on Human Calpain 1/NS1 and at Human Calpain 9/NS1 were > 10000 nM, > 10000 nM and < 3000 nM, respectively.

As to `Cc1cccc(C)c1NC(=O)C(=O)[C@@H]1CCCCOCCOCc2ccccc2C(=O)N1` [Compound 54, (S)—N-(2,6-dimethylphenyl)-2-oxo-2-(12-oxo-1,3,4,6,7,8,9,10,11,12-decahydrobenzo[f][1,4]dioxa[9]azacyclotetradecin-10-yl)acetamide], the IC50 at Human Calpain 2/NS1, on Human Calpain 1/NS1 and at Human Calpain 9/NS1 was > 10000 nM in each case.

In the case of `CS(=O)(=O)c1cccc(CNC(=O)C(=O)C2CCCCOCCOCc3ccccc3C(=O)N2)c1` (stereo not drawn) [Compound 118, N-(3-(methylsulfonyl)benzyl)-2-oxo-2-(12-oxo-1,3,4,6,7,8,9,10,11,12-decahydrobenzo[f][1,4]dioxa[9]azacyclotetradecin-10-yl)acetamide], the IC50 at Human Calpain 2/NS1 is > 10000 nM; at Human Calpain 1/NS1 it was > 10000 nM; on Human Calpain 9/NS1, < 3000 nM.
